Source: ChEMBL document CHEMBL3734717, “New INH-pyrazole analogs: Design, synthesis and evaluation of antitubercular and antibacterial activity” (Bioorg Med Chem Lett, 2015)
Values after ≈ are worked out from the molar mass of the structure shown. Active and inactive are the calls of the source. The calls are words filed in the database; no cut-off is given here.

How the values were obtained:
[1] = test system: Mycobacterium tuberculosis; assay: Antitubercular activity against Mycobacterium tuberculosis H37Rv assessed as inhibition of cell growth after 5 days by microplate alamar blue assay; assay type: functional; details: 120 h
Staphylococcus aureus [2] = assay: Antibacterial activity against Staphylococcus aureus assessed as zone of inhibition at 75 ug/ml incubated for 18-24 hrs at 37 degC by disc diffusion method; assay type: functional; details: read-out: IZ
Staphylococcus aureus [3] = assay: Antibacterial activity against Staphylococcus aureus assessed as zone of inhibition at 50 ug/ml incubated for 18-24 hrs at 37 degC by disc diffusion method; assay type: functional; details: read-out: IZ
Escherichia coli [4] = assay: Antibacterial activity against Escherichia coli assessed as zone of inhibition at 75 ug/ml incubated for 18-24 hrs at 37 degC by disc diffusion method; assay type: functional; details: for zone of inhibition at 75 µg/mL: read-out: IZ
Escherichia coli [5] = assay: Antibacterial activity against Escherichia coli assessed as zone of inhibition at 50 ug/ml incubated for 18-24 hrs at 37 degC by disc diffusion method; assay type: functional; details: for zone of inhibition at 50 µg/mL: read-out: IZ
Pseudomonas aeruginosa [6] = assay: Antibacterial activity against Pseudomonas aeruginosa assessed as zone of inhibition at 75 ug/ml incubated for 18-24 hrs at 37 degC by disc diffusion method; assay type: functional; details: for zone of inhibition at 75 µg/mL: read-out: IZ
Pseudomonas aeruginosa [7] = assay: Antibacterial activity against Pseudomonas aeruginosa assessed as zone of inhibition at 50 ug/ml incubated for 18-24 hrs at 37 degC by disc diffusion method; assay type: functional; details: for zone of inhibition at 50 µg/mL: read-out: IZ
[8] = Cytotoxicity against African green monkey Vero cells assessed as growth inhibition at 62.5 ug/ml after 3 days by MTT assay; assay type: cell-based; details: chlorocebus sabaeus, read-out: GI
Vero = assay: Cytotoxicity against African green monkey Vero cells assessed as growth inhibition after 3 days by MTT assay; assay type: cell-based; details: Chlorocebus sabaeus, 72 h
[9] = Selectivity index, ratio of IC50 for African green monkey Vero cells to MIC for Mycobacterium tuberculosis H37Rv; assay type: toxicity, cell-based; details: read-out: Selectivity Index

SMILES | MIC [1] [µM] | zone of inhibition at 75 µg/mL (Staphylococcus aureus [2]) [mm] | zone of inhibition at 50 µg/mL (Staphylococcus aureus [3]) [mm] | zone of inhibition at 75 µg/mL (Escherichia coli [4]) [mm] | zone of inhibition at 50 µg/mL (Escherichia coli [5]) [mm] | zone of inhibition at 75 µg/mL (Pseudomonas aeruginosa [6]) [mm] | zone of inhibition at 50 µg/mL (Pseudomonas aeruginosa [7]) [mm] | inhibition at 72 h, 62.5 ug/ml [8] [%] | IC50 (Vero) [µg/mL] | selectivity ratio [9] | inhibition zone (IZ) (Escherichia coli [4]) | inhibition zone (IZ) (Escherichia coli [5]) | inhibition zone (IZ) (Pseudomonas aeruginosa [6]) | inhibition zone (IZ) (Pseudomonas aeruginosa [7])
O=C(c1ccncc1)N(/N=C/c1c[nH]nc1-c1cccc(Cl)c1)C(=O)c1ccc(Cl)cc1 | 3.4 (≈ 1.58 µg/mL) | 23 | 18 | 25 | 21 | 21 | 19 | 10.5 | > 1000 | > 625 |  |  |  | 
O=C(c1ccncc1)N(/N=C/c1c[nH]nc1-c1cccc(Cl)c1)C(=O)c1ccccc1Cl | 1.7 (≈ 0.789 µg/mL) | 15 | 13 | 18 | 14 | 16 | 12 | 14.9 | 513 (≈ 1110 µM) | 642 |  |  |  | 
COc1ccc(C(=O)N(/N=C/c2c[nH]nc2-c2ccc(Cl)cc2)C(=O)c2ccncc2)cc1 | 109 (≈ 50 µg/mL) | 12 | 10 | 9 | 7 | 13 | 10 |  |  |  |  |  |  | 
O=C(c1ccncc1)N(/N=C/c1c[nH]nc1-c1ccc(Cl)cc1)C(=O)c1ccccc1Cl | 53.8 (≈ 25 µg/mL) | 18 | 14 | 19 | 16 | 19 | 15 |  |  |  |  |  |  | 
COc1ccc(C(=O)N(/N=C/c2c[nH]nc2-c2cccc(Cl)c2)C(=O)c2ccncc2)cc1OC | 102 (≈ 50 µg/mL) | 10 | 8 |  |  |  |  |  |  |  | inactive | inactive | inactive | inactive
O=C(c1ccncc1)N(/N=C/c1c[nH]nc1-c1cccc(Cl)c1)C(=O)c1ccc(CCl)cc1 | 52.3 (≈ 25 µg/mL) | 17 | 14 | 16 | 14 | 20 | 18 |  |  |  |  |  |  | 
O=C(c1ccncc1)N(/N=C/c1c[nH]nc1-c1ccc(Cl)cc1)C(=O)c1ccc(CCl)cc1 | 13.1 (≈ 6.27 µg/mL) | 16 | 13 | 19 | 15 | 20 | 18 | 12 | > 1000 | > 160 |  |  |  | 
O=C(c1ccncc1)N(/N=C/c1c[nH]nc1-c1ccc(Cl)cc1)C(=O)c1ccc(F)cc1 | 112 (≈ 50 µg/mL) | 17 | 14 | 19 | 17 | 17 | 14 |  |  |  |  |  |  | 
NNC(=O)c1ccncc1 [ISONIAZID] | 0.7 (≈ 0.096 µg/mL) |  |  |  |  |  |  |  |  |  |  |  |  | 
O=C(c1ccncc1)N(/N=C/c1c[nH]nc1-c1cccc(Cl)c1)C(=O)c1ccc(F)cc1 | 3.6 (≈ 1.61 µg/mL) | 16 | 13 | 14 | 12 | 17 | 13 | 17.8 | > 1000 | > 625 |  |  |  | 
O=C(c1ccccc1)N(/N=C/c1c[nH]nc1-c1ccc(Cl)cc1)C(=O)c1ccncc1 | 116 (≈ 50 µg/mL) | 11 | 9 |  |  | 12 | 10 |  |  |  | inactive | inactive |  | 
O=C(c1ccncc1)N(/N=C/c1c[nH]nc1-c1cccc(Cl)c1)C(=O)c1ccc([N+](=O)[O-])cc1 | 26.3 (≈ 12.5 µg/mL) | 17 | 14 | 15 | 13 | 14 | 11 |  |  |  |  |  |  | 
CC[C@@H](CO)NCCN[C@@H](CC)CO [ETHAMBUTOL] | 15.3 (≈ 3.13 µg/mL) |  |  |  |  |  |  |  |  |  |  |  |  | 
O=C(c1ccncc1)N(/N=C/c1c[nH]nc1-c1ccc(Cl)cc1)C(=O)c1ccc([N+](=O)[O-])cc1 | 26.3 (≈ 12.5 µg/mL) | 19 | 17 | 20 | 18 | 17 | 15 |  |  |  |  |  |  | 
Cc1ccc(C(=O)N(/N=C/c2c[nH]nc2-c2cccc(Cl)c2)C(=O)c2ccncc2)cc1 | 113 (≈ 50 µg/mL) | 12 | 10 | 11 | 8 | 10 | 8 |  |  |  |  |  |  | 
Cc1ccc(C(=O)N(/N=C/c2c[nH]nc2-c2ccc(Cl)cc2)C(=O)c2ccncc2)cc1 | 113 (≈ 50 µg/mL) | 20 | 17 | 14 | 12 | 15 | 11 |  |  |  |  |  |  | 
O=C(c1ccccc1)N(/N=C/c1c[nH]nc1-c1cccc(Cl)c1)C(=O)c1ccncc1 | 116 (≈ 50 µg/mL) | 13 | 11 |  |  |  |  |  |  |  | inactive | inactive | inactive | inactive
O=C(N/N=C/c1c[nH]nc1-c1ccc(Cl)cc1)c1ccncc1 | 38.4 (≈ 12.5 µg/mL) | 19 | 16 | 16 | 14 | 18 | 14 |  |  |  |  |  |  | 
NC(=O)c1cnccn1 [PYRAZINAMIDE] | 406 (≈ 50 µg/mL) |  |  |  |  |  |  |  |  |  |  |  |  | 
O=C(c1ccncc1)N(/N=C/c1c[nH]nc1-c1ccc(Cl)cc1)C(=O)c1ccc(Cl)cc1 | 53.8 (≈ 25 µg/mL) | 24 | 21 | 24 | 19 | 21 | 18 |  |  |  |  |  |  | 
O=C(N/N=C/c1c[nH]nc1-c1cccc(Cl)c1)c1ccncc1 | 4.9 (≈ 1.6 µg/mL) | 23 | 18 | 24 | 20 | 19 | 15 | 26.3 | > 1000 | > 625 |  |  |  | 
COc1ccc(C(=O)N(/N=C/c2c[nH]nc2-c2ccc(Cl)cc2)C(=O)c2ccncc2)cc1OC | 102 (≈ 50 µg/mL) | 10 | 8 | 9 | 6 | 11 | 9 |  |  |  |  |  |  | 
O=C(O)c1cn(C2CC2)c2cc(N3CCNCC3)c(F)cc2c1=O [CIPROFLOXACIN] |  | 26 | 21 | 32 | 27 | 21 | 18 |  |  |  |  |  |  | 
COc1ccc(C(=O)N(/N=C/c2c[nH]nc2-c2cccc(Cl)c2)C(=O)c2ccncc2)cc1 | 109 (≈ 50 µg/mL) | 10 | 7 | 11 | 9 | 14 | 11 |  |  |  |  |  |  | 
